Experiment [1] has as its system LTB4 -induced bronchoconstriction. The experiment in a line: Guinea Pig Bronchoconstriction In Vivo (LTB4-induced). More on the design: species or system guinea pig (Hartley strain). The following applies: Cavia porcellus, iv, i.v. five minutes prior to LTB4 (1 μg/kg i.v.), read-out: ID50 (mg/kg), i.v., LTB4-induced bronchoconstriction. As for the experimental part: Male guinea pigs (Hartley strain) weighing 300 to 500 g are anesthetized with urethane (2 g/kg) intraperitoneally and a polyethylene cannula is inserted into the jugular vein for drug administration. Tracheal pressure is recorded from a cannula inserted into the trachea and connected to a Gould P23ID pressure transducer. After surgical preparation of the animals, a period of time is allowed for pulmonary functions to stabilize. The test compound is administered intravenously five minutes prior to leukotriene B4 administration according to the following protocol: Animals are paralyzed with succinylcholine (1.2 mg/kg i.v.) and mechanically respirated (Harvard rodent respirator) at 40 breaths/minute and 2.5 cc tidal volume. Propranolol (0.1 mg/kg) is then administered intravenously one minute prior to leukotriene B4 administration. Animals are then challenged with an intermediate constrictory dose of leukotriene B4 (1 μg/kg) delivered intravenously.
The change (cm H2 O) between pre and peak ventilatory pressure readings is averaged for five control and five drug treated animals. The percent inhibition is calculated from the formula:
((Control-Drug Treated)/Control)×100
When representative compounds of formula I of the invention were utilized as the test compounds the following results were obtained: […]

A further experiment concerns the target T1, LTB4 Receptor (Homo sapiens, UniProt Q15722).
T1 construct: Isolated human neutrophils in Gey's salt solution; endogenous in cells; host or cells: human neutrophils isolated from blood (90-95% neutrophils)
The experiment in a line: LTB4 Receptor Binding Assay (inhibition of 3H-LTB4 binding, human neutrophils). The following applies: 0.5 nM 3H-LTB4, 45 minutes on ice, isolated human neutrophils. As for the experimental part:
Binding assays can be performed in microtiter wells. Isolated human neutrophils in Gey's salt solution are incubated on ice for 45 minutes with 0.5 nM ^3 H-LTB4 in the presence or absence of test compounds. Assays are terminated by adding 12 ml ice cold 50 mM Tris (pH 7.4) followed by rapid filtration under vacuum through GF/C filters. Radioactivity is determined by scintillation counting. Non specific binding is defined as the binding not displaced by 100 fold excess of unlabelled LTB4. Specific binding is defined as the difference between total binding and non-specific binding. Non linear analysis of the binding data is performed using LIGAND (Munson and Rodbard, 1980). Ki (Inhibition Constant) values were determined using the Cheng-Prusoff relationship (Cheng and Prusoff, 1973).
Human neutrophils are prepared from citrated or heparinized blood. The blood was diluted 1:1 with Hank's balanced salt solution (HBSS) minus calcium and magnesium and underlayed with 10 ml lymphocyte separation medium (Organon Teknika), followed by centrifugation at 500× g for 30 min., at room temperature. Supernatants are removed down to the red blood cell pellet. HBSS minus calcium and magnesium are added to give 25 ml. To this are added 25 ml 6% dextran in 0.85% NaCl. Samples are mixed and allowed to stand 20 min at room temperature. Supernatants are removed and centrifuged at 500× g for 5 min at 4° C. Pellets are resuspended with 20 ml 0.2% saline for 20 sec followed by the addition of 20 ml 1.6% saline. Samples are centrifuged at 500× g for 5 min at 4° C. The lysis is repeated and the cells (90-95% neutrophils) are resuspended at 2× 10^6 cell/ml in GEY's salt solution.

T1 sequence (Q15722 whole entry): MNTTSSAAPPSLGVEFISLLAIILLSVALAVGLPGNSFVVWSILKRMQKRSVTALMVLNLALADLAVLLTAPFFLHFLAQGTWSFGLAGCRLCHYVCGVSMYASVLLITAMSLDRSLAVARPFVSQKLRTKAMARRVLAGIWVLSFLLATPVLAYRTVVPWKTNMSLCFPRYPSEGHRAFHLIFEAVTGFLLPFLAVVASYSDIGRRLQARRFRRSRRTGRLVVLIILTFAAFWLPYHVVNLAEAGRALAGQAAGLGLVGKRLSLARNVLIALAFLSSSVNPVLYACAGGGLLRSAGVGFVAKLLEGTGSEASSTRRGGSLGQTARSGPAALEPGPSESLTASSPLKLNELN

As to `CCCc1c(OCCCCCCc2cccc(OCCCCCCCC(=O)O)c2CCC(=O)O)ccc2c1OCCC2=O` [Example 184, 2-[(7-Carboxyheptyl)oxy]-6-[6-[(3,4-dihydro-4-oxo-8-propyl-2H-1-benzopyran-7-yl)oxy]hexyl]benzenepropanoic Acid], the ED50 in experiment [1] was 0.17 mg/kg.
Take `CCCc1c(OCCCC/C=C/c2ccc(C(=O)c3cccc(C(=O)O)c3)cc2CCC(=O)O)ccc2c1OCCC2=O` [Example 101, (E)-5-[(3-Carboxyphenyl)carbonyl]-2-[6-[(3,4-dihydro-4-oxo-8-propyl-2H-1-benzopyran-7-yl)oxy]-1-hexenyl]benzenepropanoic Acid]: the Ki on LTB4 Receptor worked out at 4 nM.
On to `CCCc1c(OCCCCCOc2ccc(CCC(=O)O)cc2CCC(=O)O)ccc2c1OCCC2=O` [Example 163, 4-[5-[(3,4-Dihydro-4-oxo-8-propyl-2H-1-benzopyran-7-yl)oxy]pentyloxy]-1,3-benzenedipropanoic Acid], for which the ED50 in experiment [1] was 3.11 mg/kg. The affinity at LTB4 Receptor, expressed as Ki, was 3 nM.
On to `CCCc1c(OCCCCCCc2ccc(OCCCC(=O)O)cc2/C=C/C(=O)O)ccc2c1OCCC2=O` [Example 114, (E)-4-[3-(2-carboxyethenyl)-4-[6-[(3,4-dihydro-4-oxo-8-propyl-2H-1-benzopyran-7-yl)oxy]hexyl]phenoxy]butanoic acid], for which the Ki on LTB4 Receptor is 1 nM.
For the molecule `CCCc1c(OCCCCCOc2ccccc2OCC(=O)O)ccc2c1OCCC2=O` [Example 13, [2-[5-[(3,4-Dihydro-4-oxo-8-propyl-2H-1-benzopyran-7-yl)oxy]pentyloxy]phenoxy]acetic Acid], in experiment [1], the ED50 turned out to be 1.85 mg/kg. This molecule gave a Ki at LTB4 Receptor of 70 nM.
Molecule `CCCc1c(OCCCCCCCOc2ccc(C(=O)c3cccc(C(=O)O)c3)cc2CCC(=O)O)ccc2c1OCCC2=O` [Example 81, 5-[(3-Carboxyphenyl)carbonyl]-2-[7-[(3,4-dihydro-4-oxo-8-propyl-2H-1-benzopyran-7-yl)oxy]heptyloxy]benzenepropanoic Acid] registered a Ki at LTB4 Receptor of 3 nM.
`CCCc1c(OCCCCCOc2ccc(C(=O)Cc3ccccc3C(=O)O)cc2CCC(=O)O)ccc2c1OCCC2=O` [Example 92, 5-[2-(2-Carboxyphenyl)-1-oxoethyl]-2-[5-[(3,4-dihydro-4-oxo-8-propyl-2H-1-benzopyran-7-yl)oxy]pentyloxy]benzenepropanoic Acid] came in with an inhibitory constant (Ki) on LTB4 Receptor of 5 nM.
As for `CCCc1c(OCc2cccc(COc3ccccc3CCC(=O)O)c2)ccc2c1OCCC2=O` [Example 39, 2-[3-[[(3,4-Dihydro-4-oxo-8-propyl-2H-1-benzopyran-7-yl)oxy]methyl]phenylmethoxy]benzenepropanoic Acid], the ED50 in experiment [1] stood at 5.4 mg/kg. At LTB4 Receptor, this molecule showed an inhibitory constant (Ki) of 100 nM.
With `CCCc1c(OCCCCCOc2cccc3cc(C(=O)O)oc23)ccc2c1OCCC2=O` [Example 19, 7-[5-[(3,4-Dihydro-4-oxo-8-propyl-2H-1-benzopyran-7-yl)oxy]pentyloxy]-2-benzofurancarboxylic Acid], the Ki on LTB4 Receptor turned out to be 250 nM.
For `CCCc1c(OCCCCCOc2ccc(OCCCC(=O)O)cc2CCC(=O)O)ccc2c1OCCC2=O` [Example 47, 5-(3-Carboxypropoxy)-2-[5-[(3,4-dihydro-4-oxo-8-propyl-2H-1-benzopyran-7-yl)oxy]pentyloxy]benzenepropanoic Acid], in experiment [1], the ED50 turned out to be 3.66 mg/kg. Moreover, the inhibition constant (Ki) on LTB4 Receptor was found to be 3 nM.
With `CCCc1c(OCCCCCCc2cccc(OCCCCC(=O)N(C)C)c2CCC(=O)N(C)C)ccc2c1OCCC2=O` [Example 196, 2-[6-[(3,4-Dihydro-4-oxo-8-propyl-2H-1-benzopyran-7-yl)oxy]hexyl]-6-[[5-(dimethylamino)-5-oxopentyl]oxy]-N,N-dimethylbenzenepropanamide], in experiment [1], the ED50 stood at 0.62 mg/kg. Besides, at LTB4 Receptor, the inhibitory constant (Ki) was 200 nM.
On LTB4 Receptor, `CCCc1c(C#CCCCCOc2ccccc2CCC(=O)O)ccc2c1OCCC2=O` [Example 107, 2-[6-(3,4-Dihydro-4-oxo-8-propyl-2H-1-benzopyran-7-yl)-5-hexynyloxy]benzenepropanoic Acid] showed a Ki of 50 nM.
Same read-out and setting: the value for `CCCc1c(OCCCCCc2ccccc2CCC(=O)O)ccc2c1OCCC2=O` [Example 8, 2-[5-[(3,4-Dihydro-4-oxo-8-propyl-2H-1-benzopyran-7-yl)oxy]pentyl]benzenepropanoic Acid] was 63 nM; that for `CCCc1ccc2c(c1OCCCCCOc1ccccc1CCC(=O)O)CCCC2=O` [Example 79, 2-[5-[(5-Oxo-2-propyl-5,6,7,8-tetrahydro-1-naphthalenyl)oxy]pentyloxy]benzenepropanoic Acid] was 1500 nM.
At LTB4 Receptor, `CCCc1c(OCCCCCOc2ccccc2/C=C/C(=O)O)ccc2c1OCCC2=O` [Example 109, (E)-3-[2-[5-[(3,4-Dihydro-4-oxo-8-propyl-2H-1-benzopyran-7-yl)oxy]pentyloxy]phenyl]-2-propenoic Acid] returned a Ki of 80 nM.
For the molecule `CCCc1c(OCCCCCCc2cccc(OCCCC(=O)O)c2CCC(=O)O)ccc2c1OCCC2=O` [Example 205, 2-(3-Carboxypropoxy)-6-[6-[(3,4-dihydro-4-oxo-8-propyl-2H-1-benzopyran-7-yl)oxy]hexyl]benzenepropanoic Acid], the ED50 in experiment [1] is 0.26 mg/kg.
In the case of `CCCc1c(OCCCCCOc2ccc(C(=O)CCC(=O)O)cc2CCC(=O)O)ccc2c1OCCC2=O` [Example 89, 3-(2-Carboxyethyl)-4-[5-[(3,4-dihydro-4-oxo-8-propyl-2H-1-benzopyran-7-yl)oxy]pentyloxy]-γ-oxobenzenebutanoic Acid], the ED50 in experiment [1] is 4.33 mg/kg. In addition, the affinity on LTB4 Receptor, expressed as Ki, was 4 nM.
In the case of `CCCc1c(OCCCCCOc2ccc(C(C)=O)cc2CCC(=O)O)ccc2c1OCCC2=O` [Example 33, 5-Acetyl-2-[5-[(3,4-dihydro-4-oxo-8-propyl-2H-1-benzopyran-7-yl)oxy]pentyloxy]benzenepropanoic Acid], in experiment [1], the ED50 was 1.8 mg/kg. Also, the Ki at LTB4 Receptor is 10 nM.
Turning to `CCCc1c(OCCCCCOc2ccc(C(=O)c3ccccc3CC(=O)O)cc2CCC(=O)O)ccc2c1OCCC2=O` [Example 95, 5-[[2-(Carboxymethyl)phenyl]carbonyl]-2-[5-[(3,4-dihydro-4-oxo-8-propyl-2H-1-benzopyran-7-yl)oxy]pentyloxy]benzenepropanoic Acid], on LTB4 Receptor, affinity was put at a Ki of 8 nM.
As to `CCCc1c(OCCCCCCc2cccc(OCCCCCCCCC(=O)O)c2CCC(=O)O)ccc2c1OCCC2=O` [Example 188, 2-[(8-Carboxyoctyl)oxy]-6-[6-[(3,4-dihydro-4-oxo-8-propyl-2H-1-benzopyran-7-yl)oxy]hexyl]benzenepropanoic Acid], in experiment [1], the ED50 is 0.9 mg/kg.
On to `CCCc1c(OCCCCCCCCOc2ccc(C(=O)c3cccc(C(=O)O)c3)cc2CCC(=O)O)ccc2c1OCCC2=O` [Example 83, 5-[(3-Carboxyphenyl)carbonyl]-2-[8-[(3,4-dihydro-4-oxo-8-propyl-2H-1-benzopyran-7-yl)oxy]octyloxy]benzenepropanoic Acid], for which the Ki at LTB4 Receptor was determined as 3 nM.
As to `CCCc1c(OCCCCCOc2ccccc2CCC(=O)O)ccc2c1CCCC2=O` [Example 10, 2-[[5-(5-Oxo-1-propyl-5,6,7,8-tetrahydro-2-naphthalenyl)oxy]pentyloxy]benzenepropanoic Acid], in experiment [1], the ED50 is 2.08 mg/kg.
With `CCCc1c(CCCCCCOc2ccccc2CCC(=O)O)ccc2c1OCCC2=O` [Example 106, 2-[6-(3,4-Dihydro-4-oxo-8-propyl-2H-1-benzopyran-7-yl)hexyloxy]benzenepropanoic Acid], on LTB4 Receptor, the affinity, expressed as Ki, was 20 nM.
Take `CCCc1c(OCCCCCOc2ccccc2CCC(=O)O)ccc2c1OCC2=O` [Example 40, 2-[5-[(2,3-Dihydro-3-oxo-7-propylbenzofuran-6-yl)oxy]pentyloxy]benzenepropanoic Acid]: the Ki at LTB4 Receptor was 75 nM.
The same measure, in the same setting: to `CCCc1c(OCCCCCOc2ccc3oc(C(=O)O)cc3c2)ccc2c1OCCC2=O` [Example 26, 5-[5-[(3,4-Dihydro-4-oxo-8-propyl-2H-1-benzopyran-7-yl)oxy]pentyloxy]-2-benzofurancarboxylic Acid] belongs 270 nM.
As to `CCCc1c(OCCCCCCc2cccc(OCCCCCC(=O)O)c2CCC(=O)O)ccc2c1CCCC2=O` [Example 206, 2-[(5-Carboxypentyl)oxy]-6-[6-[(5,6,7,8-tetrahydro-5-oxo-1-propyl-2-naphthalenyl)oxy]hexyl]benzenepropanoic Acid], the ED50 in experiment [1] came out at 0.12 mg/kg.

Values taken from patent publication US5434186A, “Carboxylic acid leukotriene B4 antagonists” (Hoffmann-La Roche Inc., priority 1993, dated 1995).
